Experimental data reported in patent publication US11919895B2, “GPR183 antagonists for the treatment of pain” (Saint Louis University, priority 2019, dated 2024).
Entries after “also recorded” stand apart in the source; their conditions may differ. Where two headings read alike, the source gives them in different places.

Columns and labels:
[1] = tested on: GPR183 signaling in the spinal cord; assay: Example 2: mechano-allodynia induced by intrathecal GPR183 agonist; type: in vivo, mice
Procedure: (§1) α,25-dihydroxycholesterol (7α,25-OHC) was purchased from Avanti Polar Lipids (Alabaster, AL) and dissolved in DMSO as a 2 mM stock. For injections 7α,25-OHC was diluted in saline. […] For intrathecal injections, NIBR189 was diluted in saline. Fluoronated 7α,25-OHC analog (SLUPP-1492) was synthesized as described previously (Deng et al., 2016) (detailed methods below and continued in Supplemental methods) and prepared as a 10 mM stock in DMSO. For injections SLUPP-1492 was diluted in saline. SAE compounds were purchased from Enamine (Monmouth Jet., NJ), all compounds were purified via normal phase chromatography and had purities of ≥95%. 100 mM Stock solutions of the SAE compounds were prepared in DMSO. For intrathecal injections, SAE compounds were diluted in saline. Acute intrathecal (i.th.) injections of compounds were performed as described previously (Lu and Schmidtko, 2013), all compounds were administered intrathecally in a total volume of 5-10 μL.
(§2) Mechano-allodynia was measured as previously described (Yosten et al., 2020) using calibrated von Frey filaments (Stoelting; range in mice: 0.07-2.00 g; in rats: 2-26 g) using the Dixon up-and-down method (Dixon, 1991). Mechano-allodynia was defined as a significant (p<0.05) reduction in mechanical paw withdrawal threshold [PWT (g)] compared to baseline forces (before treatment).

[2] = tested on: GPR183 signaling in the spinal cord; assay: Example 2: cold allodynia induced by intrathecal GPR183 agonist (acetone test); type: in vivo, mice
Procedure: as §1, with “Acute intrathecal (i.th.) injections of compounds were performed as described previously (Lu and Schmidtko, 2013), all compounds were administered intrathecally in a total volume of 5-10 μL.” left out
Cold allodynia was measured as previously described using the acetone test (Xing et al., 2007; Yosten et al., 2020). Briefly, a small drop of acetone was applied to the hind paw of the animal using a flattened polyethylene tube and a syringe and the response to the cold stimulus was scored (0, no response; 1, brisk withdrawal or flick of the paw; 2. repeated flicking of the paw; 3. repeated flicking and licking of the paw). […] When mechanical and cold allodynia were measured on the same animal, mechano-allodynia was measured first with at least 15 minutes before testing cold allodynia.

[3] = tested on: CCI-induced mechano-allodynia; assay: Example 2: CCI-induced mechano-allodynia, intrathecal injection (von Frey); type: in vivo, mice
Procedure: as §1
CCI of the left sciatic nerve of mice and rats was performed under general anesthesia as previously described (Yosten et al., 2020). Briefly, animals were anesthetized with 2% isoflurane/O2, the left thigh was shaved and disinfected with Dermachlor solution. A small incision (1-1.5 cm) was made in the middle of the lateral aspect of the left thigh to expose the sciatic nerve. The nerve was loosely ligated around the diameter at 3 distinct sites (1 mm apart) using silk sutures (6.0, mice; 4.0, rats). The surgical site was closed with a skin clip and disinfected and treated with topical lidocaine (2%). Sham animals underwent the same procedure without nerve ligation. Peak allodynia developed by D7-D10 following CCI surgery.
as §2

[4] = tested on: GPR183; assay: Example 1: mechano-allodynia induced by i.th. GPR183 agonist; type: in vivo, rodents
[5] = tested on: CCI-induced neuropathic pain; assay: Example 1: intrathecal injection in CCI-induced neuropathic pain; type: in vivo, rodents; settings: for reversal of CCI-induced neuropathic pain behaviors (allodynia) ipsilateral to injury: intrathecal injection at time of peak neuropathic pain (day 7); for effect on behaviors on the contralateral side: intrathecal injection (5 μl), CCI
[6] = target: T1, GPR183 (Homo sapiens, UniProt P32249); assay: Calcium mobilization antagonism assay (7α,25-OHC-induced) in HL-60 cells; type: cell-based; parameters: host or cells: HL-60 (human leukemia) cells; settings: 7α,25-OHC at EC80
Target sequence in this assay (P32249 whole entry): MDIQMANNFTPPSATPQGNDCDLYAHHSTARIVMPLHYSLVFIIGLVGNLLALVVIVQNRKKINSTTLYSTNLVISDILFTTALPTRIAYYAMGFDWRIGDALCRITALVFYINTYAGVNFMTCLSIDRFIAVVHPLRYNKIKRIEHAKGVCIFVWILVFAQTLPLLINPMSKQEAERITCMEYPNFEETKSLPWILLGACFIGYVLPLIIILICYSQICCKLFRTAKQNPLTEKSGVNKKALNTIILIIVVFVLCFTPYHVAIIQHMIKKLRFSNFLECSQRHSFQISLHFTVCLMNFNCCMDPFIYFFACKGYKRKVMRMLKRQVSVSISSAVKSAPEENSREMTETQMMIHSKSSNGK
Procedure: Serial dilutions (5×) of compounds were prepared in 50:1 HBSS/HEPES.HL-60 cells (1×10^7) were incubated in 50:1 HBSS/HEPES containing 5 μM indo-1-AM (Thermo Fischer Scientific; Waltham. MA) and 0.05% pluronic acid for 0.5 hours at room temperature. Cells were centrifuged and washed with 50:1 HBSS/HEPES and resuspended in buffer. Cells were loaded onto a black 96-well Greiner Bio-One (Thermo Fischer Scientific; Waltham, MA) clear-bottom plate at 100,000 cells/well for a 5× dilution. […] For antagonism assays, before the addition of agonist, 5× of the antagonist was added and incubated for 15 minutes at 37° C. inside a FlexStation3. After allowing 15 minutes of equilibration, the determined EC80 of 7α,25-OHC (200 nM) was added, and fluorescence was read for 150 secs at 37° C. Calcium mobilization was determined ratiometrically using λex 350 nm and λem 405/490 nm. Dose-response data were normalized to a 0.5% DMSO vehicle control and the maximum response. […]

[7] = Ardecky et al., 2010; cited from earlier work
[8] = Ardecky et al., 2010; cited from earlier work; remark: listed apart in the source
[9] = target: T1, GPR183; settings: Benned-Jensen et al., 2013; read-out: IC50, GPR183 antagonist; cited from earlier work
Target sequence in this assay (P32249 whole entry, species assumed): as the sequence (P32249 whole entry) above

[10] = target: T1, GPR183; assay: Calcium mobilization agonism assay in HL-60 cells; type: cell-based; parameters: host or cells: HL-60 (human leukemia) cells; settings: for EC80: calcium mobilization
Procedure: The Human leukemia (HL)-60 cells (American Type Culture Collection; Manassas, VA) were cultivated in RPMI 1640 media containing 10% heat-inactivated fetal bovine serum (FBS), 1% penicillin, and 1% GlutaMax. Cells were passaged every 3 days and maintained at a cell concentration below 1×10^6 to prevent differentiation.
(§3) Serial dilutions (5×) of compounds were prepared in 50:1 HBSS/HEPES.HL-60 cells (1×10^7) were incubated in 50:1 HBSS/HEPES containing 5 μM indo-1-AM (Thermo Fischer Scientific; Waltham. MA) and 0.05% pluronic acid for 0.5 hours at room temperature. Cells were centrifuged and washed with 50:1 HBSS/HEPES and resuspended in buffer. Cells were loaded onto a black 96-well Greiner Bio-One (Thermo Fischer Scientific; Waltham, MA) clear-bottom plate at 100,000 cells/well for a 5× dilution. For agonism assays, cells were immediately incubated for 15 minutes at 37° C. inside a FlexStation 3 Multimode Plate Reader (Molecular Devices; Sunnyvale, CA). Following the 15 minute incubation period, 5× of the compound was added and fluorescence was read for 150 seconds at 37° C. This method was utilized to determine the EC80 value of 7α,25·OHC (EC80=200 nM). For antagonism assays, before the addition of agonist, 5× of the antagonist was added and incubated for 15 minutes at 37° C. inside a FlexStation3. After allowing 15 minutes of equilibration, the determined EC80 of 7α,25-OHC (200 nM) was added, and fluorescence was read for 150 secs at 37° C. Calcium mobilization was determined ratiometrically using λex 350 nm and λem 405/490 nm. Dose-response data were normalized to a 0.5% DMSO vehicle control and the maximum response. From the normalized data, non-linear regression curves were then generated to calculate the appropriate EC50 and IC50 values. Each compound was run in triplicate (n=3).
Target sequence in this assay (P32249 whole entry): as above

[11] = target: T1, GPR183; assay: Calcium mobilization in HL-60 cells after siRNA knock-down of GPR183; type: cell-based; parameters: host or cells: HL-60 (human leukemia) cells; settings: HL-60 cells treated with siRNA, FIG. 12E
Procedure: as §3, with “Dose-response data were normalized to a 0.5% DMSO vehicle control and the maximum response. From the normalized data, non-linear regression curves were then generated to calculate the appropriate EC50 and IC50 values. Each compound was run in triplicate (n=3).” left out
Target sequence in this assay (P32249 whole entry): as above
siRNA was purchased from Santa Cruz Biotechnology (Dallas, TX). HL-60 cells were centrifuged and counted with a hemocytometer to obtain 2.5×10^6 cells. […]

[12] = acute i.th. on D7 post-surgery, male and female mice, SAE-1 800 nM, SAE-10 1.4 μM, SAE-14 2.9 μM

In the case of `O=C(CCc1ccc(F)c(F)c1)Nc1cc(F)cc(N2CCOCC2)c1` [SAE-14], the “prevention of mechano-allodynia induced by 7α,25-OHC” value ([1]; i.th. pre-treatment 0.3, 1, 3 μM, 7α,25-OHC 480 nM, male and female mice) is reported as “blocked these effects of 7α,25-OHC in a dose-dependent manner; also recorded: dose-dependently prevented”, the “prevention of cold-allodynia induced by 7α,25-OHC” value ([2]; i.th. pre-treatment 3 μM, 7α,25-OHC 480 nM, male and female mice) is reported as “blocked these effects of 7α,25-OHC in a dose-dependent manner; also recorded: dose-dependently prevented” and the “reversal of CCI-induced mechano-allodynia” value [3, 12] is reported as “reversed CCI-induced mechanical allodynia in a time-dependent manner”. For the same compound, the “blockade of agonist-induced allodynia” value ([4]; i.th. delivery, rodents) was “blocked”, the “reversal of CCI-induced neuropathic pain behaviors (allodynia) ipsilateral to injury” value (“reversal … to injury” below) [5] was “reversed allodynia in a time-dependent manner” and the “observable adverse side effects” value ([5]; intrathecal injection, rodents) was “no observable adverse side effects”. It also gave an IC50 [6] of 28.5 nM.

In the case of `COc1ccc(C(=O)N2CCN(C(=O)/C=C/c3ccc(Br)cc3)CC2)cc1` [NIBR189], the “reversal of CCI-induced mechano-allodynia” value ([3]; acute i.th. 0.7, 2.3, 23 μM on D7 post CCI, male mice) is reported as “failed to reverse mechano-allodynia; also recorded: did not reverse”, the “effect on behaviors on the contralateral side” value [5] is reported as “No effects on behaviors on the contralateral side” and the “reversal … to injury” value [5] is reported as “reversal of CCI-induced neuropathic pain behaviors ipsilateral to injury in a time- and dose-dependent manner”.

For `COc1cc2c(cc1OC)CN(C(=O)NOCc1ccccc1)CC2` [SAE-10], the “reversal of CCI-induced mechano-allodynia” value [3, 12] was “reversed CCI-induced mechanical allodynia in a time-dependent manner”.

In the case of `O=C(/C=C/c1ccc(Cl)cc1)N1CCC2(CC1)CN(Cc1ccc(Cl)c(Cl)c1)C(=O)O2` [GSK682753A], the plasma stability [7] is listed as “poor”, the microsomal stability [8] is listed as “poor” and the IC50 [9] is listed as 200 nM.

For `C[C@H](CCCC(C)(C)O)[C@H]1CC[C@H]2[C@@H]3[C@H](O)C=C4C[C@@H](O)CC[C@]4(C)[C@H]3CC[C@]12C` [7α,25-OHC, 7α,25-dihydroxycholesterol], the induction of mechano-allodynia ([1]; acute i.th., 7α,25-OHC 24, 72, 240 nM, SLUPP-1492 615 nM, male and female mice) was “induced a dose and time-dependent mechano-allodynia”, the “ED50, induction of mechano-allodynia” value ([1]; i.th. injection, mice, FIG. 14A) was 74 nM and the induction of cold-allodynia ([2]; i.th., 7α,25-OHC 240 nM, SLUPP-1492 615 nM, mice) was “induced time-dependent development of cold-allodynia”. For the same compound, the “ED50, induction of mechano-allodynia” value ([4]; i.th. injection, n=6/dose, 3 doses) was 0.031 ng, the EC50 [10] was 42.4 nM and the “calcium response in HL-60 cells that express GPR183” value ([10]; FIG. 1) was “very prominent calcium response”. The EC80 ([10]; HL-60 cells) was 209 nM, the EC80 ([10]; HL-60 cells, listed as 7α,25·OHC) was 200 nM and the “HillSlope (best-fit value)” value ([10]; log(agonist) vs. normalized response, variable slope, HL-60 cells) was 0.8624. The “7α,25-OHC-induced calcium mobilization with GPR183-specific siRNA” value [11] was “abolished”.

For `COc1cc(C(C)NC(=O)Cc2c(C)nc(C)[nH]c2=O)cc(OC)c1OC` (stereo not drawn) [SAE-1], the “reversal of CCI-induced mechano-allodynia” value [3, 12] was “reversed CCI-induced mechanical allodynia in a time-dependent manner”, the “effect on behaviors on the contralateral side” value [5] was “No effects on behaviors on the contralateral side” and the “reversal … to injury” value [5] was “reversal of CCI-induced neuropathic pain behaviors ipsilateral to injury in a time- and dose-dependent manner”.
